# Experimental data taken from US6545032B1, “Synthesis of [3,5,7]-H-imidazo[1,5-a] imidazol-2(3H)-one compounds” (Torrey Pines Institute for Molecular Studies, priority 1999, dated 2003).
# Tests used:
# [1] = target: T1, kappa opiate receptor (Cavia porcellus, UniProt P41144); test: Inhibition of tritiated U69,593 binding to the kappa opiate receptor in guinea pig brain homogenates; set-up: Mean: unit not given beside the values; conditions: 3 nm tritiated U69,593, guinea pig brain membranes; for % Bound: [3H]U69,593 bound; for % Inhibition: inhibition of [3H]U69,593 binding; for Mean: mean bound radioactivity of [3H]U69,593, 2.5 hours 25° C.; for Minus NSB: mean minus non-specific binding
# T1 construct: guinea pig cortices and cerebella were homogenized in 40 mL of Buffer A; from tissue; host or cells: guinea pig cortices and cerebella, crude membrane suspension
# T1 sequence (P41144 whole entry): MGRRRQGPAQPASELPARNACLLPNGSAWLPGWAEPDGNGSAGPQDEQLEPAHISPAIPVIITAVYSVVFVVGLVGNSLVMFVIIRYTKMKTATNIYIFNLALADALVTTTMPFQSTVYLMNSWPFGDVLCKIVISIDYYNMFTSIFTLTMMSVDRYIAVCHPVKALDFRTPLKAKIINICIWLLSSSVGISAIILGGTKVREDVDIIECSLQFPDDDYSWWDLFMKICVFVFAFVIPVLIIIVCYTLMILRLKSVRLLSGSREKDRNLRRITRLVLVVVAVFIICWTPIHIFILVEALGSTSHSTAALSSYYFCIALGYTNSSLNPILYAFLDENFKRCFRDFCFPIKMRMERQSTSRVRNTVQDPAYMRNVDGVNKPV
# In short: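 Guinea pig cortex and cerebellum membranes in 50 mM Tris-HCl pH 7.4 incubated with 3 nM [³H]U69,593 for 2.5 h at 25 °C, then filtered and bound radioactivity counted. Unlabelled U50,488 served as competitor for standard curve and nonspecific binding.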
# [2] = target: T2, mu opiate receptor (Rattus norvegicus, UniProt P33535); test: Inhibition of [3H]DAMGO binding to the mu opiate receptor in rat brain homogenates; set-up: Mean: unit not given beside the values; conditions: 0.08 mg of compound per milliliter, 7 nM 3H-labeled DAMGO, rat brain membranes; for % Bound: [3H]DAMGO bound; for Mean: mean bound radioactivity of [3H]DAMGO; for Minus NSB*: mean minus non-specific binding; for % Inhibition: percent inhibition of DAMGO binding
# T2 construct: from tissue; host or cells: rat brain membranes/homogenate
# T2 sequence (P33535 whole entry): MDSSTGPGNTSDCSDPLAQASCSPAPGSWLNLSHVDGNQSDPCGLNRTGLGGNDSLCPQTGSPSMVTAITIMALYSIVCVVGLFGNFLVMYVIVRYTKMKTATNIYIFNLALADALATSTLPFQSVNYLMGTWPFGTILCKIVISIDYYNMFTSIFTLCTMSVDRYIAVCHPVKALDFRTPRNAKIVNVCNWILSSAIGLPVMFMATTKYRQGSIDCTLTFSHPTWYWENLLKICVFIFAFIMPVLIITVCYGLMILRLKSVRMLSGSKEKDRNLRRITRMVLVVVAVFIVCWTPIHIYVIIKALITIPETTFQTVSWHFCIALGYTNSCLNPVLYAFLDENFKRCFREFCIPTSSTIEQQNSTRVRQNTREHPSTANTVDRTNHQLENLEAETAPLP
# In short: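 Members of an imidazo-imidazolone compound library were tested for blocking binding of [^3H]DAMGO, a mu opiate receptor-specific ligand, to rat brain membranes. Each 0.65 mL tube held 0.08 mg of compound mixture per milliliter, 0.5 mL membrane suspension (0.1 mg of protein) and 7 nM ^3H-labeled DAMGO (36 Ci/mmol) in 50 mM Tris-HCl buffer (pH 7.4).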
SMILES,% Bound [1],% Inhibition [1],Mean [1],Minus NSB [1],% Bound [2],Mean [2],Minus NSB* [2],% Inhibition [2]
CC(C)c1nc(Cc2ccc(Cl)c(Cl)c2)n2c1NC(=O)C2C(C)C (racemic) [Pool 81],89.223%,10.777%,1831.35,924.35,71%,988.3,680.30,29%
CC(C)c1nc(CC2CC3CCC2C3)n2c1NC(=O)C2C(C)C (stereo not drawn) [Pool 155],69.040%,30.960%,1622.25,715.25,64%,918.35,610.35,36%
Cc1nc(C(C)C)c2n1C(C(C)C)C(=O)N2 (stereo not drawn) [Pool 36],84.976%,15.024%,1787.35,880.35,66%,940.6,632.60,34%
Cc1nc(CC2CCCCC2)c2n1C(C(C)C)C(=O)N2 (racemic) [Pool 62],83.909%,16.091%,1776.3,869.30,52%,805,497.00,48%
CCC(C)Cc1nc(C(C)C)c2n1C(C(C)C)C(=O)N2 (stereo not drawn) [Pool 126],73.311%,26.689%,1666.5,759.50,64%,918.7,610.70,36%
CCCCc1nc(C)n2c1NC(=O)C2C(C)C (racemic) [Pool 60],81.892%,18.108%,1755.4,848.40,62%,902.8,594.80,38%
CC1CCC(Cc2nc(C(C)C)c3n2C(C(C)C)C(=O)N3)CC1 (stereo not drawn) [Pool 152],58.697%,41.303%,1515.1,608.10,48%,770.1,462.10,52%
CC(C)c1nc(Cc2cccc(Br)c2)n2c1NC(=O)C2C(C)C (racemic) [Pool 72],65.748%,34.252%,1588.15,681.15,27%,563,255.00,73%
CC(C)c1nc(C(C2CCCCC2)C2CCCCC2)n2c1NC(=O)C2C(C)C (stereo not drawn) [Pool 139],58.779%,41.221%,1515.95,608.95,65%,928.85,620.85,35%
Cc1nc(C)n2c1NC(=O)C2C(C)C (stereo not drawn) [Pool 51],71.313%,28.687%,1645.8,738.80,62%,902.75,594.75,38%
Cc1nc(CCCCN)c2n1C(C(C)C)C(=O)N2 (stereo not drawn) [Pool 41],51.853%,48.147%,1444.2,537.20,58%,858.1,550.10,42%
CC(C)c1nc(CCC2CCCCC2)n2c1NC(=O)C2C(C)C (stereo not drawn) [Pool 148],89.971%,10.029%,1839.1,932.10,61%,890.8,582.80,39%
CC(C)c1nc(CCC2CCCC2)n2c1NC(=O)C2C(C)C (stereo not drawn) [Pool 146],69.088%,30.912%,1622.75,715.75,67%,945.85,637.85,33%
CCCCC1C(=O)Nc2c(C(C)C)nc(C)n21 (stereo not drawn) [Pool 11],80.034%,19.966%,1736.15,829.15,47%,756.05,448.05,53%
CC(C)c1nc(Cc2cccc(C(F)(F)F)c2)n2c1NC(=O)C2C(C)C (racemic) [Pool 73],78.205%,21.795%,1717.2,810.20,69%,967.25,659.25,31%
Cc1nc(Cc2ccccc2)c2n1C(C(C)C)C(=O)N2 (racemic) [Pool 63],84.913%,15.087%,1786.7,879.70,57%,854.35,546.35,43%
CCC(C)c1nc(C)n2c1NC(=O)C2C(C)C (stereo not drawn) [Pool 54],100.410%,−0.410%,1947.25,1040.25,53%,815.2,507.20,47%
CC(C)c1nc(C2(c3ccccc3)CC2)n2c1NC(=O)C2C(C)C (racemic) [Pool 67],84.662%,15.338%,1784.1,877.10,55%,830,522.00,45%
CCC(C)c1nc(C)n2c1NC(=O)C2C(C)C (stereo not drawn) [Pool 38],68.639%,31.361%,1618.1,711.10,40%,687.75,379.75,60%
Cc1cccc(Cc2nc(C(C)C)c3n2C(C(C)C)C(=O)N3)c1 (racemic) [Pool 70],107.389%,−7.389%,2019.55,1112.55,68%,954.15,646.15,32%
CC(C)c1nc(C2CCC2)n2c1NC(=O)C2C(C)C (stereo not drawn) [Pool 144],52.172%,47.828%,1447.5,540.50,59%,867.3,559.30,41%
